Assay results published in US8846914B2, “Compositions to effect neuronal growth” (Neuralstem, Inc., priority 2003, dated 2014).
Read-outs that look alike come from different tables or passages of the source.

Columns and labels:
[1] = tested on: human hippocampal stem cells differentiated for 3-4 weeks; assay: Neuroprotection against staurosporine-induced neurodegeneration; format: cell-based; conditions: 125 nM staurosporine, twenty-four hour, 10 μM agent; for inhibition at 10 µM: Homo sapiens, 24 h
Method: FIG. 7A is a bar graph illustrating an example of a neuroprotection profile of the compounds against staurosporine-induced human hippocampal neurodegeneration as indicated by loss of neurons after twenty-four hour treatment with staurosporine by counting the remaining number of neurons, an increase in […], and an increase in intracellular levels of activated caspase-3/-7 detected by immunostaining. Addition of 125 nM staurosporine solution to human hippocampal stem cells differentiated for 3-4 weeks causes neuronal injury and death. Effect of the […] treatment to inhibit the staurosporine-induced neuronal loss and injury are shown. Each bar represents n=6 wells of the mean+/−the SEM from a single experiment.
Effect of the compound treatment to inhibit the staurosporine-induced neuronal loss and injury are shown. Each bar represents n=6 wells of the mean+/−the SEM from a single experiment.
Agents that promote proliferation and neurogenesis are further evaluated for their ability to inhibit neurodegeneration and apoptosis of the human hippocampal multipotent stem cell-derived neurons. Neurodegeneration may be induced in culture using any number of inducers as known by those skilled in the art. Examples of neurodegenerative inducers include: staurosporine, hypoxia reperfusion, free radicals, glutamate agonists, activated monocyte supernatant, beta amyloid peptides and corticosteroids to name a few. Some of the neurogenic agents inhibit loss of neurons, inhibit caspase activation, inhibit nuclear fragmentation or condensation, inhibit lactate dehydrogenase activity among other effects on neurodegeneration. Using staurosporine as an example, 125 nM of a staurosporine solution is added along with 10 μM of one of the listed neurogenic agents to human hippocampal stem cells differentiated for 3-4 weeks.
A number of neurogenic agents inhibit neuronal loss, caspase-3 activity and/or nuclear fragmentation compared to staurosporine vehicle control. These NSI small molecule agents are all effective at in vitro neurogenesis as determined by methods described. More particularly, human hippocampal stem cells differentiated for a period of 3-4 weeks are treated with an agent for 8-24 hrs in a neuronal maintenance media prior to treatment with an apoptotic or neurodegenerative insults such as staurosporin, TNFα and LPS-stimulated monocyte supernatant and the like. Following the treatment period, media is removed from the treated cells and the cells are fixed and stained. Staining may include Hoechst stain, MAP-2ab (AP-20) antibody staining, active caspase-3 antibody or other measures of neurodegeneration and apoptosis. Instrumentation such as a Molecular Devices fluorescent plate reader or a […] Array Scan II instrument and the like may be used to measure the degeneration and apoptosis.
FIGS. 7A, 7B and 7C illustrate an example of a neuroprotection profile of tested compounds against staurosporine-induced human hippocampal neurodegeneration measured by the remaining number of neurons, an increase in nuclear fragmentation, and an increase in intracellular levels of activated caspase-3/-7 detected by immunostaining, respectively. Human hippocampal stem cells that have been differentiated for 3-4 weeks undergo a twenty-four hour treatment with 125 nM staurosporine solution to cause neuronal injury and death. The effect of the compound treatment to inhibit the staurosporine-induced neuronal loss and injury is shown in each of FIGS. 7A, 7B and 7C. Each bar represents n=6 wells of the mean+/−the SEM from a single experiment.

hippocampal stem cells = assay: Differentiation into mature neurons (BrdU+/MAP-2ab+), three-week treatment; format: cell-based, human; conditions: three weeks of continuous treatment; two-day BrdU pulse; FIG. 12
Method: FIG. 12 is a bar graph illustrating an example of differentiation into mature neurons as a percentage of control in response to a three-week treatment with the test compounds. Mitotic cells were labeled with BrdU. BrdU-positive cells were double-stained with the marker of mature neurons, anti-MAP-2 antibody. Total BrdU-immunostained cells and BrdU+/MAP-2ab+ co-stained cells indicating neurons were counted.
In FIG. 12 the exact number of dividing cells and neurons are determined to confirm that the increase in neurons is due to proliferation followed by differentiation. In FIG. 12, hippocampal stem cells are plated in a 96-well plate. The cells are then treated with one of the agents listed along with a two-day pulse of bromodeoxyuridine which is taken up into dividing cells thereby labeling mitotic cells with BrdU. After three weeks of continuous treatment with the listed agents, the cells are fixed and stained for BrdU immunoreactivity. BrdU-positive cells are double-stained with the marker of mature neurons, anti-MAP-2 to identify cells that have differentiated into mature neurons. The BrdU+/MAP-2ab+ co-stained cells which have differentiated into mature neurons are distinguished from control BrdU-immunostained cells which are proliferating stem cells.

[2] = tested on: caspase-3 activation induced by beta amyloid peptide 25-35; assay: Apoptosis induced by beta amyloid peptide 25-35 (caspase-3); format: cell-based, human; conditions: FIG. 8
Excerpt: (§1) FIG. 8 is a bar graph illustrating an example of a neuroprotection profile of the compounds against apoptosis, also known as programmed cell death, induced by beta amyloid peptide 25-35 as a model of Alzheimer's disease. Caspase-3 activation plays a central role in apoptosis and is an indicator of the occurrence of apoptosis if detected. […] Bars represent mean±SD from five wells.
Another assay used to determine the ability of a compound to provide neuroprotection is an apoptosis assay. Apoptosis is measured using the activity of an early matter of the programmed cell death pathway, caspase-3. Following 24 hours or 48 hours of apoptotic-induction in the presence and absence of compound treatment, the media is removed from the wells, and 50 μl cell lysis buffer is added to each well, 50 μl of 2× reaction buffer containing 10 mM DTT is then added to the lysate in each well. The contents of two wells are combined (for example: rows A/H, B/G, C/F, D/E), and 5 μl of substrate is added per well as recommended in the protocol for a caspase-3 fluorometric assay kit (Biovision) known in the art. The plate is incubated at 37° C. for 60 minutes. The contents of each well are then transferred to a fresh plate, and the fluorescence is determined with an […] using a fluorescent plate reader such as the Molecular Devices Gemini Fluorescent Plate Reader. Caspase-3 activity is expressed as μM of cleaved substrate per hour. Substrate concentration in μM is run for each plate to determine activity values for each treatment condition.
as §1, with “apoptosis” for “apoptosis, also known as programmed cell death,”, “25-35, part of a larger peptide found in plaques in Alzheimer's brains,” for “25-35”

[3] = read-out: Stauro % Inhib Nuclear Frag
[4] = read-out: Stauro % Inhib Caspase-3

CCCCNc1c(C2CCN(C(=O)CN(CC(C)C)S(C)(=O)=O)CC2)nc2cnccn12 [NSI-106]
Stauro % Inhib Neuron Number [1]: 16 ± 19%

CS(=O)(=O)N1CCCCC1C(=O)NCc1ccc(Nc2c(C3CC3)nc3ccccn23)cc1 (centres unmarked) [NSI-127]
Proliferation and differentiation into mature neurons (BrdU+/MAP-2ab+ cells) (hippocampal stem cells): induce proliferation and then differentiation into neurons

COc1ccc(CCNc2ncc(C(N)=O)c(NC3CC3)n2)cc1OC [NSI-130]
inhibition at 10 µM [1, 3]: 56 ± 17%
Inhibition of apoptosis induced by beta amyloid peptide 25-35 [2]: inhibit apoptosis

CCCNc1ncc(C(N)=O)c(NC2CCCC2)n1 [NSI-137]
inhibition at 10 µM [1, 3]: 87 ± 41%

O=C(NC1CCN(Cc2ccccc2)CC1)c1cccnc1N1CCNCC1 [NSI-143]
inhibition at 10 µM [1, 3]: 123 ± 77%

NC(=O)c1cnc(NCc2ccc(Cl)cc2)nc1NCC1CCCCC1 [NSI-144]
Inhibition of apoptosis induced by beta amyloid peptide 25-35 [2]: inhibit apoptosis
Proliferation and differentiation into mature neurons (BrdU+/MAP-2ab+ cells) (hippocampal stem cells): induce proliferation and then differentiation into neurons

CCCCNc1c(C2CCN(C(=O)c3ccc(C#N)cc3)CC2)nc2ccccn12 [NSI-149]
Stauro % Inhib Neuron Number [1]: 47 ± 15%

NC(=O)C1CCCN1C(=O)c1cccnc1NCC1CCCCC1 (centres unmarked) [NSI-158]
Stauro % Inhib Neuron Number [1]: 22 ± 18%
inhibition at 10 µM [1, 4]: 48 ± 14%

O=C(NCc1nc2ccccn2c1NCC1CCCO1)Oc1ccccc1 (centres unmarked) [NSI-182]
inhibition at 10 µM [1, 4]: 108 ± 21%
inhibition at 10 µM [1, 3]: 85 ± 45%
Inhibition of apoptosis induced by beta amyloid peptide 25-35 [2]: inhibit apoptosis

O=C(COc1ccccc1)NCc1nc2ccccn2c1NCC1CCCO1 (centres unmarked) [NSI-183]
Proliferation and differentiation into mature neurons (BrdU+/MAP-2ab+ cells) (hippocampal stem cells): induce proliferation and then differentiation into neurons

CS(=O)(=O)N(CC(=O)NCc1nc2ccccn2c1NCc1ccccc1)c1ccccc1 [NSI-185]
Stauro % Inhib Nuclear Frag [1]: N/N

CC(C)CCNc1ncccc1C(=O)N1CCN(Cc2ccccc2)CC1 [NSI-189]
Stauro % Inhib Neuron Number [1]: N/N

CCN(CCNC(=O)c1cccnc1NCCC(C)C)Cc1cccnc1 [NSI-190]
Stauro % Inhib Neuron Number [1]: 32 ± 1%
inhibition at 10 µM [1, 3]: 42 ± 30%
Proliferation and differentiation into mature neurons (BrdU+/MAP-2ab+ cells) (hippocampal stem cells): induce proliferation and then differentiation into neurons
